Inconclusive results and toxic doses are left out. No stated cut-off is given here; in the data, active means T/C of 150% or more; inactive means T/C below 125%.
Tested on: L1210 leukemia ip in BDF1 mice, survival T/C
Assay: NCI In Vivo Anticancer Drug Screen. Data for tumor model L1210 Leukemia (intraperitoneal) in B6D2F1 (BDF1) mice
Details: endpoint: mean survival time, higher = longer survival
Outline: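 In this screen, tumor-bearing mice given compound are compared to those given vehicle, and their survival values are reported as a treated-to-control quotient.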

[1] = dose: 12.5 mg/kg/injection, schedule: Q01DX009 (ip), vehicle: water
[2] = dose: 25.0 mg/kg/injection, schedule: Q01DX009 (ip), vehicle: water
[3] = dose: 50.0 mg/kg/injection, schedule: Q01DX009 (ip), vehicle: water
[4] = dose: 100.0 mg/kg/injection, schedule: Q01DX009 (ip), vehicle: Klucel (hydroxypropylcellulose) (HPC)
[5] = dose: 100.0 mg/kg/injection, schedule: Q04DX003 (ip), vehicle: Klucel (hydroxypropylcellulose) (HPC)
[6] = dose: 200.0 mg/kg/injection, schedule: Q01DX009 (ip), vehicle: Klucel (hydroxypropylcellulose) (HPC)
[7] = dose: 200.0 mg/kg/injection, schedule: Q04DX003 (ip), vehicle: Klucel (hydroxypropylcellulose) (HPC)
[8] = dose: 400.0 mg/kg/injection, schedule: Q04DX003 (ip), vehicle: Klucel (hydroxypropylcellulose) (HPC)
[9] = dose: 100.0 mg/kg/injection, schedule: Q04DX002 (ip), vehicle: saline
[10] = dose: 200.0 mg/kg/injection, schedule: Q04DX002 (ip), vehicle: saline
[11] = dose: 400.0 mg/kg/injection, schedule: Q04DX002 (ip), vehicle: saline

Measured: T/C

CCCCCCCCCCCC(=O)OCC1OC2C(Oc3nc(=N)ccn32)C1OC(=O)CCCCCCCCCCC (configuration not stated)
active: [1] 157 % of control | [2] 210 % of control | [3] 165 % of control

CNO
inactive: [4] 100 % of control | [5] 95 % of control | [6] 97 % of control | [7] 95 % of control | [8] 109 % of control

O=C(O)C(Cc1ccccc1)C(=O)O.[NH2-].[NH2-].[Pt+2]
inactive: dose: 25.0 mg/kg/injection, schedule: Q04DX003 (ip), vehicle: Klucel (hydroxypropylcellulose) (HPC) 102 % of control | dose: 50.0 mg/kg/injection, schedule: Q04DX003 (ip), vehicle: Klucel (hydroxypropylcellulose) (HPC) 98 % of control | [5] 119 % of control | [7] 104 % of control

Clc1cccc(C2ON2C2CCCCC2)c1 (configuration not stated)
inactive: dose: 100.0 mg/kg/injection, schedule: Q01DX001 (ip), vehicle: carboxymethylcellulose (CMC) 92 % of control | dose: 200.0 mg/kg/injection, schedule: Q01DX001 (ip), vehicle: carboxymethylcellulose (CMC) 100 % of control | dose: 400.0 mg/kg/injection, schedule: Q01DX001 (ip), vehicle: carboxymethylcellulose (CMC) 94 % of control

O=C(NNC(=O)c1ccc([N+](=O)[O-])cc1)c1ccccc1
inactive: [4] 96 % of control | [5] 105 % of control | [6] 101 % of control | [7] 103 % of control | dose: 400.0 mg/kg/injection, schedule: Q01DX009 (ip), vehicle: Klucel (hydroxypropylcellulose) (HPC) 94 % of control | [8] 100 % of control

CC(C)[C@](O)(C(=O)OCC1=CC[N+]2([O-])CC[C@@H](O)[C@@H]12)[C@H](C)O (some centres not stated)
inactive: dose: 6.2 mg/kg/injection, schedule: Q01DX009 (ip), vehicle: water 96 % of control | dose: 8.0 mg/kg/injection, schedule: Q03HX024 (ip), vehicle: water 91 % of control | [1] 96 % of control | dose: 16.0 mg/kg/injection, schedule: Q03HX008 (ip), vehicle: water 101 % of control | dose: 16.0 mg/kg/injection, schedule: Q03HX016 (ip), vehicle: water 101 % of control | dose: 16.0 mg/kg/injection, schedule: Q03HX024 (ip), vehicle: water 96 % of control | dose: 25.0 mg/kg/injection, schedule: Q01DX009 (ip), vehicle: saline 90 % of control | [2] 98 % of control | dose: 32.0 mg/kg/injection, schedule: Q03HX008 (ip), vehicle: water 99 % of control | dose: 32.0 mg/kg/injection, schedule: Q03HX016 (ip), vehicle: water 94 % of control | dose: 32.0 mg/kg/injection, schedule: Q03HX024 (ip), vehicle: water 95 % of control | dose: 50.0 mg/kg/injection, schedule: Q01DX009 (ip), vehicle: saline 93 % of control | [3] 123 % of control | dose: 64.0 mg/kg/injection, schedule: Q01DX009 (ip), vehicle: saline 99 % of control | dose: 64.0 mg/kg/injection, schedule: Q01DX009 (ip), vehicle: water 97 % of control | dose: 64.0 mg/kg/injection, schedule: Q03HX008 (ip), vehicle: water 97 % of control | dose: 64.0 mg/kg/injection, schedule: Q03HX016 (ip), vehicle: water 94 % of control | dose: 64.0 mg/kg/injection, schedule: Q03HX024 (ip), vehicle: water 99 % of control | dose: 64.0 mg/kg/injection, schedule: Q04DX003 (ip), vehicle: water 97 % of control | dose: 100.0 mg/kg/injection, schedule: Q01DX009 (ip), vehicle: saline 96 % of control | dose: 100.0 mg/kg/injection, schedule: Q01DX009 (ip), vehicle: water 110 % of control | [9] 104 % of control | dose: 128.0 mg/kg/injection, schedule: Q01DX001 (ip), vehicle: water 98 % of control | dose: 128.0 mg/kg/injection, schedule: Q01DX009 (ip), vehicle: saline 103 % of control | dose: 128.0 mg/kg/injection, schedule: Q01DX009 (ip), vehicle: water 108 % of control | dose: 128.0 mg/kg/injection, schedule: Q01DX009 (sc), vehicle: water 95 % of control | dose: 128.0 mg/kg/injection, schedule: Q03HX008 (ip), vehicle: water 101 % of control | dose: 128.0 mg/kg/injection, schedule: Q03HX016 (ip), vehicle: water 99 % of control | dose: 128.0 mg/kg/injection, schedule: Q03HX024 (ip), vehicle: water 110 % of control | dose: 128.0 mg/kg/injection, schedule: Q04DX003 (ip), vehicle: water 105 % of control | dose: 128.0 mg/kg/injection, schedule: Q08DX002 (ip), vehicle: water 95 % of control | dose: 200.0 mg/kg/injection, schedule: Q01DX009 (ip), vehicle: water 117 % of control | [10] 123 % of control | dose: 256.0 mg/kg/injection, schedule: Q01DX001 (ip), vehicle: water 99 % of control | dose: 256.0 mg/kg/injection, schedule: Q01DX009 (ip), vehicle: saline 101 % of control | dose: 256.0 mg/kg/injection, schedule: Q01DX009 (ip), vehicle: water 117 % of control | dose: 256.0 mg/kg/injection, schedule: Q01DX009 (oral), vehicle: water 103 % of control | dose: 256.0 mg/kg/injection, schedule: Q01DX009 (sc), vehicle: water 97 % of control | dose: 256.0 mg/kg/injection, schedule: Q03HX008 (ip), vehicle: water 94 % of control | dose: 256.0 mg/kg/injection, schedule: Q04DX003 (ip), vehicle: water 100 % of control | dose: 256.0 mg/kg/injection, schedule: Q08DX002 (ip), vehicle: water 101 % of control | dose: 400.0 mg/kg/injection, schedule: Q01DX009 (ip), vehicle: saline 98 % of control | [11] 120 % of control | dose: 512.0 mg/kg/injection, schedule: Q01DX001 (ip), vehicle: water 101 % of control | dose: 512.0 mg/kg/injection, schedule: Q01DX009 (ip), vehicle: water 105 % of control | dose: 512.0 mg/kg/injection, schedule: Q01DX009 (oral), vehicle: water 94 % of control | dose: 512.0 mg/kg/injection, schedule: Q01DX009 (sc), vehicle: water 104 % of control | dose: 512.0 mg/kg/injection, schedule: Q04DX003 (ip), vehicle: water 100 % of control | dose: 512.0 mg/kg/injection, schedule: Q08DX002 (ip), vehicle: water 110 % of control | dose: 800.0 mg/kg/injection, schedule: Q01DX009 (ip), vehicle: saline 111 % of control | dose: 1024.0 mg/kg/injection, schedule: Q01DX001 (ip), vehicle: water 111 % of control | dose: 1024.0 mg/kg/injection, schedule: Q01DX009 (ip), vehicle: saline 104 % of control | dose: 1024.0 mg/kg/injection, schedule: Q01DX009 (oral), vehicle: water 108 % of control | dose: 1024.0 mg/kg/injection, schedule: Q04DX003 (ip), vehicle: water 119 % of control | dose: 1024.0 mg/kg/injection, schedule: Q08DX002 (ip), vehicle: water 117 % of control

CC1(C)CCS1(=O)=O
inactive: [9] 100 % of control | [10] 100 % of control | [11] 100 % of control

CC(=O)C(C(C)=O)C(=O)c1ccc2ccccc2c1
inactive: dose: 222.0 mg/kg/injection, schedule: Q01DX Z (ip), vehicle: methylcellulose (MC) 107 % of control | dose: 333.0 mg/kg/injection, schedule: Q01DX Z (ip), vehicle: methylcellulose (MC) 94 % of control | dose: 500.0 mg/kg/injection, schedule: Q01DX Z (ip), vehicle: methylcellulose (MC) 96 % of control

Source: PubChem BioAssay AID248 (DTP/NCI, 2004)
